From ChEMBL document CHEMBL5727462, “Benzimidazole derivates useful as inhibitors of mammalian histone deacetylase activity” (2019)

Molecular target: T1, Protein deacetylase HDAC6 (Homo sapiens, UniProt Q9UBN7)
T1 sequence (Q9UBN7 whole entry): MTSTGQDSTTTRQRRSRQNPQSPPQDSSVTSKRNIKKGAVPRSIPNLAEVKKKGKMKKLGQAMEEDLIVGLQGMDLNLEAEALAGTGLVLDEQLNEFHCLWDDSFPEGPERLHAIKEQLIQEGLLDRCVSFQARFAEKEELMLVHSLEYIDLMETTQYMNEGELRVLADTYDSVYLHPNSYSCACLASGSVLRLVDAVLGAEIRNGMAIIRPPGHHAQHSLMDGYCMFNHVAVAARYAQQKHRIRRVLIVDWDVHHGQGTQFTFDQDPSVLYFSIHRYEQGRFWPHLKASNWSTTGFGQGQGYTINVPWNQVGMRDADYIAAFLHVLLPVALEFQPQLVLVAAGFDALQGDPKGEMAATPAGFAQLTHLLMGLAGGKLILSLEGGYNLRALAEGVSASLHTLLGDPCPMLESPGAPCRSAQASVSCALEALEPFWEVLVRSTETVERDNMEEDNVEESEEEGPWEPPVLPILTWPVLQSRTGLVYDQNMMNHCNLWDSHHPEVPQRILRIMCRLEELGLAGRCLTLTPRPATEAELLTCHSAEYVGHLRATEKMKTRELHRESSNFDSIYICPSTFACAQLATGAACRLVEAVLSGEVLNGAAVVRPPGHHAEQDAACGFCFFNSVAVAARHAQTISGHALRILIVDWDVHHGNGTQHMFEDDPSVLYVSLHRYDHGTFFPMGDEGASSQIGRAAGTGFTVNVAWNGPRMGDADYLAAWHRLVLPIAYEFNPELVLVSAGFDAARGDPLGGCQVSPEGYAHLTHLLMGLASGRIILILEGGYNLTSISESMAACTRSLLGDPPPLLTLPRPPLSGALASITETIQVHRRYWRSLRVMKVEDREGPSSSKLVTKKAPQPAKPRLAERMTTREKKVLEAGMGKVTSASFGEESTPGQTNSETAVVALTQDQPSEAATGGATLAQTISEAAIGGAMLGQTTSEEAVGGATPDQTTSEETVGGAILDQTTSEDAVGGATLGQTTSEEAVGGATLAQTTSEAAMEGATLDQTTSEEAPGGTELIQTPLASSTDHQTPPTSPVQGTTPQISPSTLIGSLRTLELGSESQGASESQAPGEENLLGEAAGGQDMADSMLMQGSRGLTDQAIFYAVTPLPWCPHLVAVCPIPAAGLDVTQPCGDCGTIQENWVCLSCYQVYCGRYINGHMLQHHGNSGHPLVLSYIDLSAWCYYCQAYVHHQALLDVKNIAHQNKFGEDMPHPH
Experiment: In vitro enzymatic HDACs assays: All Examples were tested in HDAC1, 2, 3, 6 and 8 in vitro enzymatic assays. The assay principle is well known (Hauser et al. 2009, Bradner et al. 2010) and all necessary reagents like enzymes, substrates, developer and reference compounds are commercially available (see e.g. BPS Biosciences http://www.bpsbioscience.com/). A series of dilutions of the compounds were prepared with a top concentration of 200 μM (2 μM for HDAC6). The enzymatic reactions were conducted in a mixture containing assay buffer, bovine serum albumin, HDAC substrate, and a test compound. After enzymatic reaction, developer was added and after an additional incubation time, fluorescence intensity was measured at an excitation wavelength of 360 nm and an emission wavelength of 460 nm. A selection of the Examples were tested in a full HDAC panel containing HDAC1, 2, 3, 4, 5, 6, 7, 8, 9, 10 and 11 in vitro enzymatic assays. The tests were performed as above except that a series of dilutions of the compounds were prepared with a top concentration of 10 μM for all HDACs.

IC50: 19 nM
Structure (SMILES): O=C(NO)c1ccc2nc(-c3ccc(-c4ccccc4)c(F)c3)[nH]c2c1
